These results are taken from patent publication US10638756B2, “Molecules having pesticidal utility, and intermediates, compositions, and processes, related thereto” (Dow AgroSciences LLC, priority 2017, dated 2020).

Holding throughout (format): in vivo
The test system of series [1] is Yellow Fever Mosquito (Aedes aegypti). To be noted: about 1 day-old larvae, 3 days, scored on mortality. As to the method: Certain molecules disclosed in this document were tested against YFM using procedures described in the following paragraph. In the reporting of the results, the “GPA & YFM Rating Table” was used (See Table Section).
Master plates containing 400 μg of a molecule dissolved in 100 μL of dimethyl sulfoxide (DMSO) (equivalent to a 4000 ppm solution) are used. A master plate of assembled molecules contains 15 μL per well. To this plate, 135 μL of a 90:10 water/acetone mixture is added to each well. A robot (Biomek® NXP Laboratory Automation Workstation) is programmed to dispense 15 μL aspirations from the master plate into an empty 96-well shallow plate (“daughter” plate). There are 6 reps (“daughter” plates) created per master. The created “daughter” plates are then immediately infested with YFM larvae.
The day before plates are to be treated, mosquito eggs are placed in Millipore water containing liver powder to begin hatching (4 g. into 400 mL). After the “daughter” plates are created using the robot, they are infested with 220 μL of the liver powder/larval mosquito mixture (about 1 day-old larvae). After plates are infested with mosquito larvae, a non-evaporative lid is used to cover the plate to reduce drying. Plates are held at room temperature for 3 days prior to grading. After 3 days, each well is observed and scored based on mortality. The results are indicated in the table entitled “Table ABC: Biological Results” (See Table Section).

The subject of series [2] is Cabbage Looper (Trichoplusia ni). Description: Bioassay on Cabbage Looper (CL), 128-well diet tray assay. To be noted: 168 h, 50 μg/cm^2 on artificial diet, second instar larvae, five to seven days, read-out: CL % Control (or Mortality) rating. The method, boiled down: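 Diet tray, 2nd instar, 1–5 larvae/well; 50 μg/cm^2 compound surface-applied (acetone:water 90:10), dried; 8 wells/treatment; 25° C, 14:10 L:D, 5–7 d; % mortality, mean of 8 wells.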

Series [3] deals with Beet Armyworm (Spodoptera exigua). Description: Bioassay on Beet Armyworm (BAW), 128-well diet tray assay. To be noted: Spodoptera exigua, 168 h; 50 μg/cm^2 on artificial diet, second instar larvae, five to seven days; read-out: BAW % Control (or Mortality) rating.

For orientation: mortality means the share of the test organisms that died. As to `N#Cc1ccc(/C(F)=C/C(c2cc(Cl)c(Cl)c(Cl)c2)C(F)(F)F)cc1C(F)(F)F` (stereo not drawn) [C25, (Z)-4-(1,4,4,4-Tetrafluoro-3-(3,4,5-trichlorophenyl)but-1-en-1-yl)-2-(trifluoromethyl)benzonitrile], the “YFM % Control (or Mortality) rating” value in series [1] was “A (80-100)”. Further, the mortality at 50 µg/cm2 in series [2] and in series [3] was 50 to 100% in each case.
Regarding `O=C(NNc1c(F)cccc1Cl)c1ccc(/C(F)=C/C(c2cc(Cl)c(Cl)c(Cl)c2)C(F)(F)F)cc1C(F)(F)F` (stereo not drawn) [F1, (Z)—N′-(2-chloro-6-fluorophenyl)-4-(1,4,4,4-tetrafluoro-3-(3,4,5-trichlorophenyl)but-1-en-1-yl)-2-(trifluoromethyl)benzohydrazide], the “YFM % Control (or Mortality) rating” value in series [1] was “A (80-100)”. Also, the mortality at 50 µg/cm2 in series [2] and in series [3] was 50 to 100% in each case.
Take `O=C(NNc1cccc(C(F)(F)F)c1)c1ccc(/C(F)=C/C(c2cc(Cl)c(Cl)c(Cl)c2)C(F)(F)F)cc1C(F)(F)F` (stereo not drawn) [F3, (Z)-4-(1,4,4,4-Tetrafluoro-3-(3,4,5-trichlorophenyl)but-1-en-1-yl)-2-(trifluoromethyl)-N′-(3-(trifluoromethyl)phenyl)benzohydrazide]: in series [1], the “YFM % Control (or Mortality) rating” value was “A (80-100)”. Moreover, the mortality at 50 µg/cm2 in series [2] and in series [3] was 50 to 100% in each case.
As for `CC(C)N(NC(=O)c1ccc(/C(F)=C/C(c2cc(Cl)c(Cl)c(Cl)c2)C(F)(F)F)cc1C(F)(F)F)c1ncccn1` (stereo not drawn) [F169, (Z)—N′-Isopropyl-N′-(pyrimidin-2-yl)-4-(1,4,4,4-tetrafluoro-3-(3,4,5-trichlorophenyl)but-1-en-1-yl)-2-(trifluoromethyl)benzohydrazide], the mortality at 50 µg/cm2 in series [2] and in series [3] was 50 to 100% in each case.
Regarding `CC(C)N(Nc1ncccn1)C(=O)c1ccc(/C(F)=C/C(c2cc(Cl)c(Cl)c(Cl)c2)C(F)(F)F)cc1C(F)(F)F` (stereo not drawn) [F170, (Z)—N-Isopropyl-N′-(pyrimidin-2-yl)-4-(1,4,4,4-tetrafluoro-3-(3,4,5-trichlorophenyl)but-1-en-1-yl)-2-(trifluoromethyl)benzohydrazide], the mortality at 50 µg/cm2 in series [2] and in series [3] was 50 to 100% each time.
As to `CN(NC(=O)c1ccc(/C(F)=C/C(c2cc(Cl)c(Cl)c(Br)c2)C(F)(F)F)cc1C(F)(F)F)c1ncccn1` (stereo not drawn) [F171, (Z)-4-(3-(3-Bromo-4,5-dichlorophenyl)-1,4,4,4-tetrafluorobut-1-en-1-yl)-N′-methyl-N′-(pyrimidin-2-yl)-2-(trifluoromethyl)benzohydrazide], the mortality at 50 µg/cm2 in series [2] and in series [3] was 50 to 100% each time.
As to `O=C(NNc1ncccn1)c1ccc(/C(F)=C/C(c2cc(Cl)cc(Br)c2)C(F)(F)F)cc1C(F)(F)F` (stereo not drawn) [F173, (Z)-4-(3-(3-Bromo-5-chlorophenyl)-1,4,4,4-tetrafluorobut-1-en-1-yl)-N′-(pyrimidin-2-yl)-2-(trifluoromethyl)benzohydrazide], the mortality at 50 µg/cm2 in series [2] and in series [3] was 50 to 100% each time.
Consider `O=C(NNc1ncccn1)c1ccc(/C(F)=C/C(c2cc(F)c(F)c(Cl)c2)C(F)(F)F)cc1C(F)(F)F` (stereo not drawn) [F174, (Z)-4-(3-(3-Chloro-4,5-difluorophenyl)-1,4,4,4-tetrafluorobut-1-en-1-yl)-N′-(pyrimidin-2-yl)-2-(trifluoromethyl)benzohydrazide], for which the mortality at 50 µg/cm2 in series [2] and in series [3] was 50 to 100% each time.
Regarding `CN(NC(=O)c1ccc(/C(F)=C/C(c2cc(F)c(F)c(Cl)c2)C(F)(F)F)cc1C(F)(F)F)c1ncccn1` (stereo not drawn) [F175, (Z)-4-(3-(3-Chloro-4,5-difluorophenyl)-1,4,4,4-tetrafluorobut-1-en-1-yl)-N′-methyl-N′-(pyrimidin-2-yl)-2-(trifluoromethyl)benzohydrazide], the mortality at 50 µg/cm2 in series [2] and in series [3] was 50 to 100% throughout.
In the case of `O=C(NNc1ncccn1)c1ccc(/C(F)=C/C(c2ccc(Br)c(Br)c2)C(F)(F)F)cc1C(F)(F)F` (stereo not drawn) [F177, (Z)-4-(3-(3,4-Dibromophenyl)-1,4,4,4-tetrafluorobut-1-en-1-yl)-N′-(pyrimidin-2-yl)-2-(trifluoromethyl)benzohydrazide], the mortality at 50 µg/cm2 in series [2] and in series [3] was 50 to 100% in each case.
As for `O=C(NNc1ncccn1)c1ccc(/C(F)=C/C(c2ccc(Cl)c(Br)c2)C(F)(F)F)cc1C(F)(F)F` (stereo not drawn) [F178, (Z)-4-(3-(3-Bromo-4-chlorophenyl)-1,4,4,4-tetrafluorobut-1-en-1-yl)-N′-(pyrimidin-2-yl)-2-(trifluoromethyl)benzohydrazide], the mortality at 50 µg/cm2 in series [2] and in series [3] was 50 to 100% in each case.
Regarding `COCN(NC(=O)c1ccc(/C(F)=C/C(c2cc(Cl)c(Cl)c(Cl)c2)C(F)(F)F)cc1C(F)(F)F)c1ncccn1` (stereo not drawn) [F179, (Z)—N′-(methoxymethyl)-N′-(pyrimidin-2-yl)-4-(1,4,4,4-tetrafluoro-3-(3,4,5-trichlorophenyl)but-1-en-1-yl)-2-(trifluoromethyl)benzohydrazide], the mortality at 50 µg/cm2 in series [2] and in series [3] was 50 to 100% each time.
Take `O=C(NNc1ncccn1)c1ccc(/C(F)=C/C(c2ccc(F)c(Cl)c2)C(F)(F)F)cc1C(F)(F)F` (stereo not drawn) [F182, (Z)-4-(3-(3-Chloro-4-fluorophenyl)-1,4,4,4-tetrafluorobut-1-en-1-yl)-N′-(pyrimidin-2-yl)-2-(trifluoromethyl)benzohydrazide]: the mortality at 50 µg/cm2 in series [2] and in series [3] was 50 to 100% each time.
For `O=C(NNc1ncccn1)c1ccc(/C(F)=C/C(c2cc(Br)c(Cl)c(Br)c2)C(F)(F)F)cc1C(F)(F)F` (stereo not drawn) [F185, (Z)-4-(3-(3,5-Dibromo-4-chlorophenyl)-1,4,4,4-tetrafluorobut-1-en-1-yl)-N′-(pyrimidin-2-yl)-2-(trifluoromethyl)benzohydrazide], the mortality at 50 µg/cm2 in series [2] and in series [3] was 50 to 100% throughout.
Turning to `O=C(NNc1ncccn1)c1ccc(/C(F)=C/C(c2cc(Cl)c(Cl)c(C(F)F)c2)C(F)(F)F)cc1C(F)(F)F` (stereo not drawn) [F186, (Z)-4-(3-(3,4-Dichloro-5-(difluoromethyl)phenyl)-1,4,4,4-tetrafluorobut-1-en-1-yl)-N′-(pyrimidin-2-yl)-2-(trifluoromethyl)benzohydrazide], the mortality at 50 µg/cm2 in series [2] and in series [3] was 50 to 100% throughout.
On to `N#CCN(C(=O)c1ccc(/C(F)=C/C(c2cc(Cl)c(Cl)c(Cl)c2)C(F)(F)F)cc1C(F)(F)F)N(CC#N)c1ncccn1` (stereo not drawn) [F187, (Z)—N,N′-bis(cyanomethyl)-N′-(pyrimidin-2-yl)-4-(1,4,4,4-tetrafluoro-3-(3,4,5-trichlorophenyl)but-1-en-1-yl)-2-(trifluoromethyl)benzohydrazide], for which the mortality at 50 µg/cm2 in series [2] and in series [3] was 50 to 100% each time.
Take `O=C(NNc1ncccn1)c1ccc(/C(F)=C/C(c2cc(F)c(Cl)c(F)c2)C(F)(F)F)cc1C(F)(F)F` (stereo not drawn) [F188, (Z)-4-(3-(4-Chloro-3,5-difluorophenyl)-1,4,4,4-tetrafluorobut-1-en-1-yl)-N′-(pyrimidin-2-yl)-2-(trifluoromethyl)benzohydrazide]: the mortality at 50 µg/cm2 in series [2] and in series [3] was 50 to 100% in each case.
Turning to `N#CCN(NC(=O)c1ccc(/C(F)=C/C(c2cc(Cl)c(Cl)c(Cl)c2)C(F)(F)F)cc1C(F)(F)F)c1ncccn1` (stereo not drawn) [F189, (Z)—N′-(cyanomethyl)-N′-(pyrimidin-2-yl)-4-(1,4,4,4-tetrafluoro-3-(3,4,5-trichlorophenyl)but-1-en-1-yl)-2-(trifluoromethyl)benzohydrazide], the mortality at 50 µg/cm2 in series [2] and in series [3] was 50 to 100% throughout.
`C=C(OCC)c1c(Cl)cc(C(/C=C(\F)c2ccc(C(=O)NNc3ncccn3)c(C(F)(F)F)c2)C(F)(F)F)cc1Cl` (stereo not drawn) [F190, (Z)-4-(3-(3,5-Dichloro-4-(1-ethoxyvinyl)phenyl)-1,4,4,4-tetrafluorobut-1-en-1-yl)-N′-(pyrimidin-2-yl)-2-(trifluoromethyl)benzohydrazide]: the mortality at 50 µg/cm2 in series [2] and in series [3] was 50 to 100% in each case.
`O=C(NNc1ncccn1)c1ccc(/C(F)=C/C(c2cc(Cl)c(Cl)c(C3CC3)c2)C(F)(F)F)cc1C(F)(F)F` (stereo not drawn) [F191, (Z)-4-(3-(3,4-Dichloro-5-cyclopropylphenyl)-1,4,4,4-tetrafluorobut-1-en-1-yl)-N′-(pyrimidin-2-yl)-2-(trifluoromethyl)benzohydrazide]: the mortality at 50 µg/cm2 in series [2] and in series [3] was 50 to 100% in each case.
On to `O=C(/N=N/c1ncccn1)c1ccc(/C(F)=C/C(c2cc(Cl)c(Cl)c(Cl)c2)C(F)(F)F)cc1C(F)(F)F` (stereo not drawn) [F192, ((E)-pyrimidin-2-yldiazenyl)(4-((Z)-1,4,4,4-tetrafluoro-3-(3,4,5-trichlorophenyl)but-1-en-1-yl)-2-(trifluoromethyl)phenyl)methanone], for which the mortality at 50 µg/cm2 in series [2] and in series [3] was 50 to 100% throughout.
